In US20240374724A1, “ENPP1 INHIBITORS AND IMMUNE CELLS EXPRESSING CHIMERIC ANTIGEN RECEPTORS” (Angarus Therapeutics, Inc., priority 2021, published 2024):

How the values were obtained:
4T1 tumor model = experiment: Tumor-associated dendritic cells in mouse 4T1 tumor model with or without IR (FACS); type: in vivo, Balb/c mice; settings: intratumoral 100 μL of 1 mM
Experimental: Anaesthetized animals were shielded with a 3.2 mm lead shield with a 15×20 mm aperture where the tumor was placed. […] On the next day, the tumor was extracted and incubated in RPMI+10% FBS with 20 μg/mL DNase I type IV (Sigma-Aldrich) and 1 mg/mL Collagenase from Clostridium histolyticum (Sigma-Aldrich) at 37° C. for 30 min. […] Cells were stained with Live/Dead fixable near-IR dead cell staining kit (Thermo Fisher Scientific), Fc-blocked for 10 min using TruStain fcX and subsequently antibody-stained with CD11c, CD45, and I-A/I-E (all Biolegend). Cells were analyzed using an SH800S cell sorter (Sony) or an LSR II (BD Biosciences).

[1] = target: T1, purified recombinant mouse ENPP1 (Mus musculus, UniProt P06802); experiment: ENPP1 activity assay using TMP-pNP as a substrate; type: biochemical; settings: TMP-pNP 2 μM, mouse ENPP1 0.5 nM, pH 7.5
T1 sequence (P06802 1-906): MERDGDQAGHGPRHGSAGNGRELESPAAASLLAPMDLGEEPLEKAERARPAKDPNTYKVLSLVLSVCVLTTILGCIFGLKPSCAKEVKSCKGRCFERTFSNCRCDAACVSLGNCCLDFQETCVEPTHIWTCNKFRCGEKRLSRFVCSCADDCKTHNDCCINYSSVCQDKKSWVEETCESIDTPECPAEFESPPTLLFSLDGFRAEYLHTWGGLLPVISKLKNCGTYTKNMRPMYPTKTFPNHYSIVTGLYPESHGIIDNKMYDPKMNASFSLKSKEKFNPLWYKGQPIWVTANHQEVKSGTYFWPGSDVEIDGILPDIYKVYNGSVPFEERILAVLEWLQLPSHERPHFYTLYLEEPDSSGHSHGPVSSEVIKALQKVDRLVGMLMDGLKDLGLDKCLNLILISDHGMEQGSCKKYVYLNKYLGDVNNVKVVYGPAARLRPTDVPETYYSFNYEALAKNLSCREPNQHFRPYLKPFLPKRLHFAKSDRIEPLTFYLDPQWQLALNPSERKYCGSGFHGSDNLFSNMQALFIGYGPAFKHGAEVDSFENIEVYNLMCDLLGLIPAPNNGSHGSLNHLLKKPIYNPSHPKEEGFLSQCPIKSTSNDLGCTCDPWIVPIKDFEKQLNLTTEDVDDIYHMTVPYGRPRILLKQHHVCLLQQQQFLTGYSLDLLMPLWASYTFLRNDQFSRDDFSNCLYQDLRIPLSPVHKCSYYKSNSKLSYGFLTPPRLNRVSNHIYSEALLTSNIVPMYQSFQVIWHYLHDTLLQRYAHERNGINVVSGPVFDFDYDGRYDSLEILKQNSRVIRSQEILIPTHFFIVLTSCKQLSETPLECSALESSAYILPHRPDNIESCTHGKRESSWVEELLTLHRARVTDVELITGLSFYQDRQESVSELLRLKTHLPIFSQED
Experimental: Selected compounds of Table 1, Table 2, Table 3, Table 4, Table 5, or Table 6 and other derivatives were prepared and assessed in an ENPP1 activity assay using thymidine monophosphate paranitrophenol (TMP-pNP) as a substrate. Enzyme reactions were prepared with TMP-pNP (2 μM), 5-fold dilutions of ENPP1 inhibitor, and purified recombinant mouse ENPP1 (0.5 nM) in 100 mM Tris, 150 mM NaCl, 2 mM CaCl2, 200 μM ZnCl2, pH 7.5 at room temperature. Reaction progress was monitored by measuring absorbance at 400 nm of paranitrophenolate produced by the reaction for 20 minutes.

4T1-luciferase tumor = 4T1-luciferase tumor model: IR with compound 1, cGAMP and/or anti-CTLA-4; tumor volume and survival; type: in vivo, Balb/c mice; settings: 20 Gy IR + 10 μg cGAMP intratumoral alone
B16F10 melanoma = B16F10 melanoma with pmel-1 donor splenocytes (adoptive T cell therapy): tumor size and tumor flow cytometry; type: in vivo, C57BL/6 mice
From the text: For the study, 0.2×10^6 B16F10 melanoma cells/mouse were implanted on day −8 on flanks of C57BL/6 female mice. On day 0, when tumor size had reached about 80 mm3, mice were randomized into 3 groups with an n=12/group. All mice in the three groups were subjected to whole body irradiation with 5.0 Gy for lymphodepletion. […] gp100 specific donor splenocytes were harvested from C57BL/6 pmel-1 donor mice (The Jackson Laboratory, world wide web.jax.org/strain/005023). Briefly, splenocytes comprising immune cells such as T cells from spleens of 18 pmel-1 female C57BL/6 mice (Jackson labs) were harvested yielding˜90 Million splenocytes. The pmel-1 splenocytes were isolated, the red blood cells lysed, and the remaining splenocytes expanded and activated with IL-2 and gp100 antigen for 4 days in vitro, and administered to the B16 melanoma bearing mice by i.v. On day 7, mice were sacrificed, and tumor, spleen, and blood samples were collected. Tumor size of all three treatment groups were measured on days 0, 2, 5 and 7 (FIGS. 6 and 7). […] After mice were sacrificed, tumor samples were tested for the fraction of several live immune cells (CD45+ cells) in the tumor. Briefly, tumors were harvested, and samples digested with tumor digestion mix and cells collected and washed in FACS buffer. A sample of cells was stained with a live/dead stain (ef780) to test for live cells and enumerated by flow cytometry. […] When staining for intracellular markers, cells were fixed and permeabilized before staining with markers (ki67). For example, cells were stained with markers for MDSC and F4/80 macrophages and enumerated by flow cytometry. […] Samples were also analyzed for the percentage of gp100+, CD8+ T cells actively proliferating (ki67+ cells) that were present in the tumor.

IFN-γ secretion = experiment: IFN-γ ELISA / ELISpot of splenocytes from B16F10 tumor bearing mice given donor T cells; type: in vivo, C57BL/6 mice
From the text: This example describes the in vitro activation and expansion of donor C57BL/6 pmel-1 splenocytes by INF-γ ELISA and INF-γ Elispot analysis of splenocytes derived from B16F10 melanoma syngeneic tumor model inoculated with Pmel-1 donor splenocytes (T-cells). Briefly, spleens and splenocytes from C57BL-B16F10 tumor bearing mice treated with or without an ENPP1 inhibitor and donor T cells are harvested and purified as described in Example 8. To test for cytokine secretion, the isolated splenocytes are then plated and co-cultured with gp100 peptide on a plate of an ELISpot kit and IFN-γ secretion is detected. The number of spots is counted for each well and summarized for each group. Additionally, or alternatively, IFN-γ secretion is detected with a IFN-γ ELISA test.

[2] = 50 mg/kg plus donor splenocytes

Experimental for CD14+ IFNB1 expression: Primary human peripheral blood mononucleocyte cells (PBMCs) were isolated by subjecting enriched buffy coat from whole blood to a Percoll density gradient. CD14^+ monocytes were isolated using CD14^+ MicroBeads (Miltenyi). CD14^+ monocyctes were cultured in RPMI supplemented with 2% human serum and 100 U/mL penicillin-streptomycin. […] 24-26 hours following supernatant transfer, total RNA was extracted using Trizol (Thermo Fisher Scientific) and reverse transcribed with Maxima H Minus Reverse Transcriptase (Thermo Fisher Scientific). Real-time RT-PCR was performed in duplicate with AccuPower 2×Greenstar qPCR Master Mix (Bioneer) on a 7900HT Fast Real-Time PCR System (Applied Biosystems). Data were normalized to CD14 expression for each sample. Fold induction was calculated using ΔΔCt.
Supernatant from these cells was transferred to primary CD14^+ human PBMCs. IFNB1 mRNA levels were normalized to CD14 and the fold induction was calculated relative to untreated CD14^+ cells.

## COc1cc2ncnc(N3CCC(CCP(=O)(O)O)CC3)c2cc1OC [compound 1]
CD14+ IFNB1 expression; 293T cGAS ENPP1low cells transiently overexpressing ENPP1
  extracellular cGAMP levels: rescued
CD14+ IFNB1 expression; supernatant of ENPP1-overexpressing 293T cGAS ENPP1low cells transferred to CD14+ monocytes
  CD14+ IFNB1 expression: induced
4T1 tumor model; no IR
  tumor-associated leukocyte compositions compared to the PBS control: did not change
4T1 tumor model; tumors pretreated with 20 Gy IR
  tumor associated CD11c+ population: increased

## O=P(O)(O)CCC1CCN(c2ncnc3ccccc23)CC1 [compound 25]
[1]
  IC50: 0.005 to 0.05 µM

## Nc1nc2c(ncn2[C@@H]2O[C@@H]3COP(=O)(O)O[C@H]4[C@@H](O)[C@H](n5cnc6c(N)ncnc65)O[C@@H]4COP(=O)(O)O[C@@H]2[C@@H]3O)c(=O)[nH]1 [cGAMP, cyclic guanosine monophosphate-adenosine monophosphate]
4T1-luciferase tumor
  effect over IR treatment (tumor): no effect

## COc1cccc2c(N3CCC(CCP(=O)(O)O)CC3)ncnc12 [Compound 76]
B16F10 melanoma; 5 mg/kg and donor T cells
  tumor size at day 7 compared to PBS with donor cells: smaller reduction in tumor size
B16F10 melanoma; 5 mg/kg plus donor T cells
  percentage of F4/80+ macrophages in tumors compared to PBS with donor T cells: higher
  percentage of MDSC macrophages in tumors compared to PBS with donor T cells: lower
  percentage of live cells in tumors compared to PBS with donor T cells: higher
B16F10 melanoma; 5 mg/kg plus donor splenocytes
  percentage of Thy1.1+ (pmel-1 derived), gp100+, CD8+ donor T cells in tumors compared to PBS with donor splenocytes: higher
  percentage of Thy1.2+ host cells in tumors: declined reciprocally
  percentage of gp100+, CD8+, ki67+ T cells in tumors compared to PBS with donor splenocytes: higher
B16F10 melanoma; 50 mg/kg and donor T cells
  tumor size at day 7 compared to PBS with donor cells: marked reduction in tumor size
B16F10 melanoma; 50 mg/kg plus donor T cells
  percentage of F4/80+ macrophages in tumors compared to PBS with donor T cells: higher
  percentage of MDSC macrophages in tumors compared to PBS with donor T cells: lower
  percentage of live cells in tumors compared to PBS with donor T cells: higher
B16F10 melanoma; [2]
  percentage of Thy1.1+ (pmel-1 derived), gp100+, CD8+ donor T cells in tumors compared to PBS with donor splenocytes: higher
  percentage of Thy1.2+ host cells in tumors: declined reciprocally
  percentage of gp100+, CD8+, ki67+ T cells in tumors compared to PBS with donor splenocytes: higher
IFN-γ secretion; 5 mg/kg plus donor T cells
  IFN-γ secretion compared to PBS with donor T cells: elevated
IFN-γ secretion; 50 mg/kg plus donor T cells
  IFN-γ secretion compared to PBS with donor T cells: elevated
